Results as given in patent publication US11161825B2, “4-oxo-2,3,4,5-tetrahydro-1H-1,5-benzodiazepine-7-carboxamides” (Bayer Aktiengesellschaft, priority 2017, dated 2021).

Key:
[1] = target: T1, untagged full length SMYD3 (Homo sapiens, UniProt Q9H7B4); test: Thermal Shift Assay; assay type: binding; conditions: protein 1.5-2.0 μM, 5× SYPRO Orange, scans 25° C. to 80° C.; control 4% DMSO
T1 construct: As protein untagged full length SMYD3 was used
T1 sequence (Q9H7B4 1-428): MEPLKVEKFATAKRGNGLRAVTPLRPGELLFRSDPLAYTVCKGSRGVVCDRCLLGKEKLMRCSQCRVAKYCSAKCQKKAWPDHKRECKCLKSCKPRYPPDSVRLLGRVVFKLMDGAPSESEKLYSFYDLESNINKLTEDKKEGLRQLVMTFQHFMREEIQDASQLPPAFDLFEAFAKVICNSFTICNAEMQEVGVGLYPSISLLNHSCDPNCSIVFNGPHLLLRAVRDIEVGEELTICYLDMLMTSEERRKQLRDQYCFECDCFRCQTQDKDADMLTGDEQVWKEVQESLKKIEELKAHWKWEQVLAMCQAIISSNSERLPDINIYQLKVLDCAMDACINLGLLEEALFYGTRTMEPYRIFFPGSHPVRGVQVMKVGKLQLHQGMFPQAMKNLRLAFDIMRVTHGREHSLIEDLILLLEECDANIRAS
Method: Thermal Shift Assay Thermal melting experiments were performed with a ViiA™ Real-Time PCR machine (Thermo Fisher Scientific) in 384-well microliter plate with a final volume of 5 μL. Melting curves were obtained at a protein concentration of 1.5-2.0 μM and 5× SYPRO Orange (Invitrogen) using buffer containing 20 mM Tris pH7.0; 150 mM NaCl; 1.0 mM DTT. As protein untagged full length SMYD3 was used. […] As control 4% DMSO was used. Scans were measured from 25° C. to 80° C. at a scanning rate of 0.1° C./sec. All TSA data were analyzed by using Genedata Assay Analyzer.

SMYD3 = target: T2, SMYD3 (Homo sapiens, UniProt Q9H7B4); test: SMYD3 Scintillation Proximity Assay (SPA), methylation of MAP3K2 Peptide; assay type: biochemical; conditions: SMYD3 full length enzyme 10 nM, 3H-SAM 125 nM, MAP3K2 Peptide 1 μM, 120 min at 22° C.
T2 construct: The SMYD3 full length enzyme was produced in-house by expression (with an N-terminal 6×His tag) in E. coli; 6xHis (N); made in house; host or cells: E. coli
T2 sequence (Q9H7B4 1-428): T1 sequence (Q9H7B4 1-428)
Method: SMYD3 Scintillation Proximity Assay (SPA)
The SMYD3 full length enzyme was produced in-house by expression (with an N-terminal 6×His tag) in E. coli and purification by affinity chromatography on a Ni-NTA Sepharose column followed by a size exclusion chromatography step on a Superdex 200 16/60 column (GE Healthcare).
To this end, 100-fold concentrated compound solutions (in DMSO) were previously prepared by serial dilution (1:3.4) of 2 mM stocks in a clear low volume 384-well source microtiter plate (Greiner Bio-One), from which 100 nl of compounds were transferred into a white low volume test microtiter plate from the same supplier. […] The resulting mixture (5 μl final volume) was shortly centrifuged (2 min., 1500 rpm) and incubated at 22° C. during 120 min. […] Plates containing the stopped reaction were sealed with transparent adhesive foil (Perkin Elmer), centrifuged (2 min., 1500 rpm), and further incubated overnight at 4° C. in order to allow the SPA signals to develop. Subsequently, the amount of product was evaluated by measuring the energy transfer from the […] emitted by the 3H-labeled substrate to the scintillator co-polymerized in the bead's matrix, using a TopCount NXT scintillation counter (Packard) with the standard instrument settings for this purpose. The resulting scintillation counts were taken as indicator for the amount of methylated peptide per well. […] IC50 values were calculated by fitting the normalized inhibition data to a 4-parameter logistic equation using the XLFit analysis software (IDBS).

Thermal shift assay (° C.) [1]	IC50 (SMYD3)	Compound
7.49 °C	0.481 µM	C[C@H]1CC(=O)Nc2cc(C(=O)NCCC3CC3)ccc2N1C(=O)NC1CCNCC1 [Example 43, (2S)—N^7-(2-cyclopropylethyl)-2-methyl-4-oxo-N^1-(piperidin-4-yl)-2,3,4,5-tetrahydro-1H-1,5-benzodiazepine-1,7-dicarboxamide]
7.24 °C	0.39 µM	C[C@H]1CC(=O)Nc2cc(C(=O)NCCC3CC3)ccc2N1C(=O)N(C)C1CCNCC1 [Example 45, (2S)—N^7-(2-cyclopropylethyl)-N^1,2-dimethyl-4-oxo-N^1-(piperidin-4-yl)-2,3,4,5-tetrahydro-1H-1,5-benzodiazepine-1,7-dicarboxamide]
